# Data as given in US8809554B2, “Process for the preparation of sulfamide derivatives” (Janssen Pharmaceutica NV, priority 2011, dated 2014).
# “And” between values parts separate entries of the source, which are not always exact repeats. Identical values can stand only once.
# Assay: Solubility of the compound of formula (I-S) in toluene as a function of OPPh3 concentration
# Type: physicochemical
# Settings: 21° C.
structure (smiles),measurement,setting,value
"NS(=O)(=O)NC[C@H]1COc2cc(Cl)ccc2O1 [compound of formula (I-S), N-[[(2S)-6-chloro-2,3-dihydro-1,4-benzodioxin-2-yl]methyl]-sulfamide]",Solubility (g/100 g toluene),OPPH3 0.05 mol/L,1.6 g/100 g toluene
same,Solubility (g/100 g toluene),OPPH3 0.10 mol/L,2.3 g/100 g toluene
same,Solubility (g/100 g toluene),OPPH3 0.15 mol/L,4.2 g/100 g toluene
same,Solubility (g/100 g toluene),OPPH3 0.20 mol/L,5.9 g/100 g toluene and 5.0 g/100 g toluene
same,Solubility (g/100 g toluene),OPPH3 0.25 mol/L,6.0 g/100 g toluene
same,Solubility (g/100 g toluene),OPPH3 0.30 mol/L,8.2 g/100 g toluene
same,Solubility (g/100 g toluene),OPPH3 0.40 mol/L,9.6 g/100 g toluene
same,"Solubility, trend with OPPh3 concentration",OPPh3 0.05-0.40 mol/L,increases with increased OPPh3 concentration
